Tests used:
ERK phosphorylation = ERK phosphorylation (pERK) in A375 cells; type: cell-based
BRAF (wild type) = target: T1, BRAF (wild type) (Homo sapiens, UniProt P15056); test: Global proteomics profiling, JURKAT cells; type: cell-based; settings: 300 nM, 24 hours
T1 construct: host or cells: JURKAT
Experimental: (§1) Each cell line was treated in duplicate with either DMSO or Compound 157 (final concentration 300 nM) for 24 hours in an incubator at 37° C. with 5% CO2. After the 24-hour incubation, cells were harvested, washed twice with PBS, and snap frozen in liquid nitrogen. Samples were re-suspended in lysis buffer [8 M urea, 50 mM HEPES (pH 8.5), 50 mM NaCl, 1× protease inhibitor cocktail] and lysed by sonication at 4° C. with 85% amplitude in a pulse setting with 30 seconds on and 30 seconds off for a total sonication time of 5 minutes. Lysates were centrifuged at maximum speed for 10 minutes at 4° C. and the supernatant collected, reduced for 1 hour at room temperature with 5 mM TCEP, and the cysteine residues were then alkylated with 15 mM iodoacetamide (room temperature, in dark, 30 minutes). Protein content was extracted by methanol-chloroform precipitation and subsequent ice-cold acetone washes. Protein pellets were resuspended in 8 M urea, 50 mM HEPES (pH 8.5) buffer and protein concentrations were measured by BCA assay. […]
(§2) For peptide tandem mass tag (TMT) labeling, 100 μg of peptides per sample was prepared at […] concentration in 200 mM HEPES (pH 8.5), 30% acetonitrile (ACN) and each the specific TMT reagent. […] TMT reporter ion intensities were quantified by extracting the signal-to-noise ratio for each. […]

A375 tumors = test: In vivo efficacy in A375 xenograft tumors; set-up: species or system BALB/c nude mice; settings: mice
Experimental: The efficacy study was conducted in female BALB/c nude mice bearing A375 tumors. Female BALB/c nude mice were inoculated subcutaneously in the right flank with A375 tumor cells (5×10^6) in 0.2 mL of PBS supplemented with Matrigel (at a 1:1 ratio) for tumor development. Tumor volume was measured twice weekly in two dimensions using calipers, and volume (mm^3) was calculated using the formula: V=0.5 a×b^2 where a and b are the long and short diameters of the tumor in mm, respectively. Once the tumors reached an average tumor volume of 246 mm^3 (16 days after implantation), the animals were divided randomly into groups of 6, stratified to result in about equal average tumor sizes in each treatment group and treatment began on Day 0.
All agents were administered to mice bearing A375 tumors orally (PO), daily (QD; encorafenib), twice a day (BID) or three times a day (TID) for Compound 157, for 21 or 35 days. encorafenib was dosed at 35 mg/kg and Compound 157 at 0.1, 0.3, 1, 3 or 10 mg/kg twice a day or 2 mg/kg three times a day. Compound 157 was formulated in 20% PEG400+80% (25% SBECD). Body weight and MTV were measured on a 2× weekly schedule and reported as Mean±SEM.

RAF1 (a.k.a CRAF) = RAF1 (a.k.a CRAF) (Homo sapiens, UniProt P04049); test: Global proteomics profiling, JURKAT cells; type: cell-based; set-up: endogenous in cells; host or cells: JURKAT, ATCC TIB-152 (A12.2); settings: 300 nM, 24 hours
Experimental: as §1, §2

RAF1 (a.k.a CRAF), sequence (P04049 whole entry): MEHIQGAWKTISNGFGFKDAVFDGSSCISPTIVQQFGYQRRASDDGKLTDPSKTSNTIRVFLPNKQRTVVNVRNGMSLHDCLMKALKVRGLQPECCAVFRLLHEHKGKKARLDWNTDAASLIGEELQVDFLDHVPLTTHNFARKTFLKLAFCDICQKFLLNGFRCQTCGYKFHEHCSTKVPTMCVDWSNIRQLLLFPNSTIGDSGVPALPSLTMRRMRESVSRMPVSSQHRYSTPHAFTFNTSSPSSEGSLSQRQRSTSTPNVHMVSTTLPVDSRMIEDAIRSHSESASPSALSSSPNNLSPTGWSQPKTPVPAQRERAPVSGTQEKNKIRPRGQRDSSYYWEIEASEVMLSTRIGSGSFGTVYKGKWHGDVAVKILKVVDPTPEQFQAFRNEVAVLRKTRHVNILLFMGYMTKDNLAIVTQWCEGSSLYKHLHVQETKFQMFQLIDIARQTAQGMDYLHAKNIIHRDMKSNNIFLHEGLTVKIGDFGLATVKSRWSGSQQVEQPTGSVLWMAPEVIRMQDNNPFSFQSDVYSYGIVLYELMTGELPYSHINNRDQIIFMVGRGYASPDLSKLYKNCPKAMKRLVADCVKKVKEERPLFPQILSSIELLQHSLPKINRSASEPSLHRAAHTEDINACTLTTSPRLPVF
T1 sequence (P15056 whole entry): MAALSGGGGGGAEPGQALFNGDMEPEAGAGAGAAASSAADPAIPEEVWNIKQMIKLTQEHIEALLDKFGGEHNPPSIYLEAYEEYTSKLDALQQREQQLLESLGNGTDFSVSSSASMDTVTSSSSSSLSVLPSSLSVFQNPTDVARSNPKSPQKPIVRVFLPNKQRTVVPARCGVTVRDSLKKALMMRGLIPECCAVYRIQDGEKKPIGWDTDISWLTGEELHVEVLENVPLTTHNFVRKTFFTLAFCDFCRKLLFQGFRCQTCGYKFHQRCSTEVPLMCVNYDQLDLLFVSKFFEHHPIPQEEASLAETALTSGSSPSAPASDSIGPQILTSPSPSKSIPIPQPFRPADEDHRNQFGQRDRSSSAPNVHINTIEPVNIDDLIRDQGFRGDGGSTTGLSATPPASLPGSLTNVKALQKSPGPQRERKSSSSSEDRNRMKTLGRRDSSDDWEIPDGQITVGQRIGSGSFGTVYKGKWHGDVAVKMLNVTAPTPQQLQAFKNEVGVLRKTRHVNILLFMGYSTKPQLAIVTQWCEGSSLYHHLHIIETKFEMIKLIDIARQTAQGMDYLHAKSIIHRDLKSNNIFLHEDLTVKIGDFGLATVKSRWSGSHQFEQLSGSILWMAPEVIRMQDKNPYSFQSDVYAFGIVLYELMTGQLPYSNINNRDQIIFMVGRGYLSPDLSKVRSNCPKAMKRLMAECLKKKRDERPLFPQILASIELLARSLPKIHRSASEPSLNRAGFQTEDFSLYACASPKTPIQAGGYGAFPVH

Q: What does the source list for `CCN(C)S(=O)(=O)Nc1ccc(F)c(Oc2ccc3ncn([C@H]4COC5(CCN(C(=O)CC6(O)CCN(c7cc8c(cc7F)c(N7CCC(=O)NC7=O)nn8C)CC6)CC5)C4)c(=O)c3c2)c1C#N` [Compound 157, (3R)-3-[6-[2-cyano-3-[[ethyl(methyl)sulfamoyl]amino]-6-fluorophenoxy]-4-oxoquinazolin-3-yl]-8-[2-[1-[3-(2,4-dioxo-1,3-diazinan-1-yl)-5-fluoro-1-methylindazol-6-yl]-4-hydroxypiperidin-4-yl]acetyl]-1-oxa-8-azaspiro[4.5]decane]?
A: ERK phosphorylation by western blot (ERK phosphorylation): significantly drops off; BRAF protein level change (BRAF (wild type)): unchanged; Tumor growth compared to vehicle-treated tumors (A375 tumors; 1 mg/kg PO BID): potent tumor growth inhibition; Tumor growth compared to vehicle-treated tumors (A375 tumors; 2 mg/kg PO TID): potent tumor growth inhibition; Tumor growth compared to vehicle-treated tumors (A375 tumors; 3 mg/kg PO BID): potent tumor growth inhibition; Tumor growth compared to vehicle-treated tumors (A375 tumors; 10 mg/kg PO BID): robust tumor growth regression; RAF1 (CRAF) protein level change (RAF1 (a.k.a CRAF)): unchanged
